# Measurements as given in patent US20170190671A1, “BIS(ARYL)CATECHOL DERIVATIVES AS HERBICIDES” (E I DU PONT DE NEMOURS AND COMPANY, priority 2014, published 2017).
# Key:
# Format in all cases: in vivo
# [1] = tested on: wild poinsettia (Euphorbia heterophylla); assay: Test F preemergence; conditions: 21 days, scale 0 to 100
# Text: (§1) Seeds of plant species selected from bermudagrass (Cynodon dactylon), Surinam grass (Brachiaria decumbens), large (Lg) crabgrass (Digitaria sanguinalis), crabgrass, naked (naked crabgrass, Digitaria nuda), foxtail, green (green foxtail, Setaria viridis), johnsongrass (Sorghum halepense), kochia (Kochia scoparia), morningglory (pitted morningglory, Ipomoea lacunosa), nutsedge, purple (purple nutsedge, Cyperus rotundus), ragweed (common ragweed, Ambrosia elatior), mustard, black (black mustard, Brassica nigra), guineagrass (Panicum maximum), dallisgrass (Paspalum dilatatum), barnyardgrass (Echinochloa crus-galli), sandbur (southern sandbur, Cenchrus echinatus), sowthistle (common sowthistle, Sonchus oleraceous), Italian ryegrass (Lolium multiflorum), signalgrass (broadleaf signalgrass, Brachiaria platyphylla), dayflower (Virginia (VA) dayflower, Commelina virginica), bluegrass (annual bluegrass, Poa annua), quackgrass (Elytrigia repens), mallow (common mallow, Malva sylvestris), buckwheat, wild (wild buckwheat, Polygonum convolvulus), leafy spurge (Euphorbia esula), chickweed (common chickweed, Stellaria media), wild poinsettia (Euphorbia heterophylla), and pigweed (Amaranthus retroflexus) were planted into a blend of loam soil and sand and treated preemergence with test a chemical formulated in a non-phytotoxic solvent mixture which included a surfactant.
# (§2) Treated plants and controls were maintained in a greenhouse for 21 days, after which time all species were compared to controls and visually evaluated. Plant response ratings, summarized in Table F, are based on a scale of 0 to 100 where 0 is no effect and 100 is complete control. A dash (-) response means no test result.
# kochia (Kochia scoparia) = assay: Test F preemergence; conditions: 21 days, scale 0 to 100
# Text: as §1, §2
# [2] = tested on: sandbur (southern sandbur, Cenchrus echinatus); assay: Test F preemergence; conditions: 21 days, scale 0 to 100
# Text: as §1, §2
# [3] = tested on: pigweed (Amaranthus retroflexus); assay: Test F preemergence; conditions: 21 days, scale 0 to 100
# Text: as §1, §2
# [4] = tested on: nutsedge, purple (purple nutsedge, Cyperus rotundus); assay: Test F preemergence; conditions: 21 days, scale 0 to 100
# Text: as §1, §2
# [5] = tested on: quackgrass (Elytrigia repens); assay: Test F preemergence; conditions: 21 days, scale 0 to 100
# Text: as §1, §2
# [6] = tested on: sowthistle (common sowthistle, Sonchus oleraceous); assay: Test F preemergence; conditions: 21 days, scale 0 to 100
# Text: as §1, §2
# [7] = tested on: leafy spurge (Euphorbia esula); assay: Test F preemergence; conditions: 21 days, scale 0 to 100
# Text: as §1, §2
# [8] = tested on: large (Lg) crabgrass (Digitaria sanguinalis); assay: Test F preemergence; conditions: 21 days, scale 0 to 100
# Text: as §1, §2
# [9] = tested on: mallow (common mallow, Malva sylvestris); assay: Test F preemergence; conditions: 21 days, scale 0 to 100
# Text: as §1, §2
# [10] = tested on: bluegrass (annual bluegrass, Poa annua); assay: Test F preemergence; conditions: 21 days, scale 0 to 100
# Text: as §1, §2
# [11] = tested on: sedge, umbrella (small-flower umbrella sedge, Cyperus difformis); assay: Test C flooded paddy; conditions: Flood, scale 0 to 100
# Text: (§3) At time of treatment, test pots were flooded to 3 cm above the soil surface, treated by application of test compounds directly to the paddy water, and then maintained at that water depth for the duration of the test. Treated plants and controls were maintained in a greenhouse for 13 to 15 days, after which time all species were compared to controls and visually evaluated. […] A dash (-) response means no test result.
# [12] = tested on: ducksalad (Heteranthera limosa); assay: Test C flooded paddy; conditions: Flood, scale 0 to 100
# Text: as §3
# [13] = tested on: barnyardgrass (Echinochloa crus-galli); assay: Test C flooded paddy; conditions: Flood, scale 0 to 100
# Text: as §3
# [14] = tested on: cocklebur (common cocklebur, Xanthium strumarium); assay: Test E preemergence; conditions: scale 0 to 100
# In short: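 Seeds were sown in silt loam soil and sprayed preemergence with test chemicals in a non-phytotoxic solvent mixture containing surfactant. For postemergence, plants at the 1- to 4-leaf stage (2 to 18 cm) in peat-based potting medium were treated. After 14 to 21 days in a greenhouse, injury was rated visually against controls, 0 (no effect) to 100 (complete control).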
structure (smiles),measurement,setting,value
"N#Cc1cccc(Oc2ncc(Cl)cn2)c1Oc1ncc(Cl)cn1 [Compound 3, 2,3-bis[(5-chloro-2-pyrimidinyl)oxy]benzonitrile]","Plant response rating, Poinsettia, Wild",[1]; 62 g ai/ha,95
same,"Plant response rating, Poinsettia, Wild",[1]; 125 g ai/ha,95
same,"Plant response rating, Poinsettia, Wild",[1]; 250 g ai/ha,100
same,"Plant response rating, Kochia",kochia (Kochia scoparia); 62 g ai/ha,100
same,"Plant response rating, Kochia",kochia (Kochia scoparia); 125 g ai/ha,100
same,"Plant response rating, Kochia",kochia (Kochia scoparia); 250 g ai/ha,100
same,"Plant response rating, Sandbur",[2]; 62 g ai/ha,35
same,"Plant response rating, Sandbur",[2]; 125 g ai/ha,100
same,"Plant response rating, Sandbur",[2]; 250 g ai/ha,100
same,"Plant response rating, Pigweed",[3]; 62 g ai/ha,100
same,"Plant response rating, Pigweed",[3]; 125 g ai/ha,100
same,"Plant response rating, Pigweed",[3]; 250 g ai/ha,100
same,"Plant response rating, Nutsedge, Purple",[4]; 62 g ai/ha,40
same,"Plant response rating, Nutsedge, Purple",[4]; 125 g ai/ha,60
same,"Plant response rating, Nutsedge, Purple",[4]; 250 g ai/ha,85
same,"Plant response rating, Quackgrass",[5]; 62 g ai/ha,65
same,"Plant response rating, Quackgrass",[5]; 125 g ai/ha,90
same,"Plant response rating, Quackgrass",[5]; 250 g ai/ha,98
same,"Plant response rating, Sowthistle",[6]; 62 g ai/ha,100
same,"Plant response rating, Sowthistle",[6]; 125 g ai/ha,100
same,"Plant response rating, Sowthistle",[6]; 250 g ai/ha,100
same,"Plant response rating, Leafy Spurge",[7]; 62 g ai/ha,98
same,"Plant response rating, Leafy Spurge",[7]; 125 g ai/ha,100
same,"Plant response rating, Leafy Spurge",[7]; 250 g ai/ha,98
same,"Plant response rating, Crabgrass, Large",[8]; 62 g ai/ha,100
same,"Plant response rating, Crabgrass, Large",[8]; 125 g ai/ha,100
same,"Plant response rating, Crabgrass, Large",[8]; 250 g ai/ha,100
same,"Plant response rating, Mallow",[9]; 62 g ai/ha,100
same,"Plant response rating, Mallow",[9]; 125 g ai/ha,100
same,"Plant response rating, Mallow",[9]; 250 g ai/ha,100
same,"Plant response rating, Bluegrass",[10]; 62 g ai/ha,80
same,"Plant response rating, Bluegrass",[10]; 125 g ai/ha,100
same,"Plant response rating, Bluegrass",[10]; 250 g ai/ha,100
"N#Cc1cccc(Oc2ncc(Cl)cn2)c1Oc1ncc(Br)cn1 [Compound 4, 2-[(5-bromo-2-pyrimidinyl)oxy]-3-[(5-chloro-2-pyrimidinyl)oxy]benzonitrile]","Plant response rating, Sedge, Umbrella",[11]; 31 g ai/ha,0
same,"Plant response rating, Sedge, Umbrella",[11]; 62 g ai/ha,0
same,"Plant response rating, Sedge, Umbrella",[11]; 125 g ai/ha,75
same,"Plant response rating, Sedge, Umbrella",[11]; 250 g ai/ha,100
same,"Plant response rating, Ducksalad",[12]; 31 g ai/ha,0
same,"Plant response rating, Ducksalad",[12]; 62 g ai/ha,40
same,"Plant response rating, Ducksalad",[12]; 125 g ai/ha,100
same,"Plant response rating, Ducksalad",[12]; 250 g ai/ha,100
same,"Plant response rating, Barnyardgrass",[13]; 31 g ai/ha,0
same,"Plant response rating, Barnyardgrass",[13]; 62 g ai/ha,0
same,"Plant response rating, Barnyardgrass",[13]; 125 g ai/ha,20
same,"Plant response rating, Barnyardgrass",[13]; 250 g ai/ha,40
"Clc1cnc(Oc2cccc(Br)c2Oc2ncc(Cl)cn2)nc1 [Compound 19, 2,2′-[[3-bromo-1,2-phenylene]bis(oxy)]bis[5-chloropyrimidine]]","Plant response rating, Cocklebur",[14]; 16 g ai/ha,0
same,"Plant response rating, Cocklebur",[14]; 62 g ai/ha,0
same,"Plant response rating, Cocklebur",[14]; 125 g ai/ha,0
Fc1cccc(Oc2ncc(Cl)cn2)c1Oc1ccc(Cl)nc1 [Compound 20],"Plant response rating, Sedge, Umbrella",[11]; 31 g ai/ha,0
same,"Plant response rating, Sedge, Umbrella",[11]; 62 g ai/ha,0
same,"Plant response rating, Sedge, Umbrella",[11]; 125 g ai/ha,65
same,"Plant response rating, Sedge, Umbrella",[11]; 250 g ai/ha,80
same,"Plant response rating, Ducksalad",[12]; 31 g ai/ha,0
same,"Plant response rating, Ducksalad",[12]; 62 g ai/ha,0
same,"Plant response rating, Ducksalad",[12]; 125 g ai/ha,45
same,"Plant response rating, Ducksalad",[12]; 250 g ai/ha,70
same,"Plant response rating, Barnyardgrass",[13]; 31 g ai/ha,0
same,"Plant response rating, Barnyardgrass",[13]; 62 g ai/ha,0
same,"Plant response rating, Barnyardgrass",[13]; 125 g ai/ha,0
same,"Plant response rating, Barnyardgrass",[13]; 250 g ai/ha,0
"Fc1cccc(Oc2ncc(Cl)cn2)c1Oc1ncc(Cl)cn1 [Compound 21, 2,2′-[[3-fluoro-1,2-phenylene]bis(oxy)]bis[5-chloropyrimidine]]","Plant response rating, Cocklebur",[14]; 31 g ai/ha,35
same,"Plant response rating, Cocklebur",[14]; 62 g ai/ha,40
same,"Plant response rating, Cocklebur",[14]; 125 g ai/ha,50
